Test results published in paper PMC9395488, “First-in-human study of IM156, a novel potent biguanide oxidative phosphorylation (OXPHOS) inhibitor, in patients with advanced solid tumors” (Investigational New Drugs, 2022).

Tested on: patients with advanced solid tumors
Experiment: First-in-human phase 1 dose-escalation study: safety, DLTs, adverse events
Type: in vivo
Source text: This multicenter first-in-human dose-escalation phase 1 study (clinicaltrials.gov identifier: NCT03272256) was designed to determine the MTD or RP2D and to evaluate the safety and tolerability of IM156. Secondary endpoints included PK characteristics, efficacy assessment (objective response rate [ORR], disease control rate [DCR], duration of response [DoR] and progression-free survival [PFS]). Furthermore, exploratory objectives included identification and profiling of IM156 metabolites, evaluations of exploratory PD markers of IM156, and evaluations of any potential relationship between putative biomarkers and safety/efficacy parameters of IM156. The study was conducted in accordance with Good Clinical Practice, the International Council for Harmonisation, and guidelines governing clinical study conduct and the ethical principles originating from the Declaration of Helsinki. The study was approved by each Institutional Review Board and patients provided written informed consent. Patients were enrolled at three sites in South Korea.
The initial dose and schedule of IM156 was chosen based on animal toxicology studies. […] IM156 was administered in the fasted state, with no food for at least 2 h before and 1 h after dosing.
Three DLT-evaluable patients were enrolled at each dose level. If there were no DLTs or other prohibitive adverse events (AEs), the Safety Committee was allowed to recommend escalation to the next highest dose level. If 1 DLT occurred in the first 3 DLT-evaluable patients, enrollment in that cohort was expanded to an additional 3 DLT-evaluable patients; if ≥ 2 DLTs were reported in a cohort, that dose was considered above the MTD.
Safety was assessed through vital signs, weight, laboratory assessments, physical examinations, electrocardiogram, and reporting of AEs as graded by the National Cancer Institute’s Common Terminology Criteria for Adverse Events v4.03 (NCI-CTCAE).
DLTs were defined as the following AEs if they were attributed as related to IM156: asymptomatic grade 4 neutropenia lasting for ≥ 5 days; febrile neutropenia, regardless of grade; grade 4 thrombocytopenia or grade 3 thrombocytopenia with bleeding; any grade ≥ 3 non-hematologic AE (except grade 3 hypertension and grade 3 nausea, vomiting or diarrhea for which proper measures for prevention and treatment were not implemented, and alopecia); blood lactate levels > 5 mmol; grade ≥ 2 AE prohibiting dosing of IM156 for ≥ 21 continuous days except for alterations in serum calcium or phosphorus levels. The safety analysis includes all patients who received at least one dose of study drug.
The safety population was defined as all patients who received at least one dose of IM156. The PK population was not defined in the protocol but included all patients with sufficient PK data to perform adequate PK modeling. The efficacy population included all patients who underwent at least one tumor imaging assessment while receiving IM156. Safety was assessed using descriptive statistics (e.g., DLTs, AEs, laboratory tests, physical examination, 12-lead ECG). The incidence and number of events were reported for the DLTs observed in Cycle 1 per dose group. […] Adverse events and TRAEs were standardized with the System Organ Class and the Preferred Term using the Medical Dictionary for Regulatory Activities v23.0. In addition, TEAEs, serious adverse events (SAEs), TEAE severity, and TEAEs leading to withdrawal were presented by dose group. Efficacy data were to be presented by Waterfall and Swim Lane plots. Time to event endpoints (e.g., DoR, PFS) were determined using Kaplan–Meier estimations with the median value for each endpoint summarized.

[1] = DL5 1200 mg orally every other day (n=3)

NC(=Nc1ccc(OC(F)(F)F)cc1)N=C(N)N1CCCC1 [IM156]
0: TEAE Dry skin grade 1 [1] | TEAE Dry skin grade 2 [1] | TEAE Dry skin grade 3 [1] | TEAE Dry skin grade 4 [1] | TEAE Flank pain grade 1 [1] | TEAE Flank pain grade 2 [1] | TEAE Flank pain grade 3 [1] | TEAE Flank pain grade 4 [1] | TEAE Hypertension grade 1 [1] | TEAE Hypertension grade 2 [1] | TEAE Hypertension grade 3 [1] | TEAE Hypertension grade 4 [1] | TEAE Hypotension grade 1 [1] | TEAE Hypotension grade 3 [1] | TEAE Hypotension grade 4 [1] | TEAE Insomnia grade 1 [1] | TEAE Insomnia grade 2 [1] | TEAE Insomnia grade 3 [1] | TEAE Insomnia grade 4 [1] | TEAE Pain in extremity grade 1 [1] | TEAE Pain in extremity grade 2 [1] | TEAE Pain in extremity grade 3 [1] | TEAE Pain in extremity grade 4 [1] | TEAE Pruritus grade 1 [1] | TEAE Pruritus grade 2 [1] | TEAE Pruritus grade 3 [1] | TEAE Pruritus grade 4 [1] | TEAE Psychiatric disorders grade 1 [1] | TEAE Psychiatric disorders grade 2 [1] | TEAE Psychiatric disorders grade 3 [1] | TEAE Psychiatric disorders grade 4 [1] | TEAE Purpura grade 1 [1] | TEAE Purpura grade 2 [1] | TEAE Purpura grade 3 [1] | TEAE Purpura grade 4 [1] | TEAE Urinary retention grade 1 [1] | TEAE Urinary retention grade 2 [1] | TEAE Urinary retention grade 3 [1] | TEAE Urinary retention grade 4 [1] | TEAE Urinary tract disorder grade 1 [1] | TEAE Urinary tract disorder grade 2 [1] | TEAE Urinary tract disorder grade 3 [1] | TEAE Urinary tract disorder grade 4 [1] | TRAE Abdominal Pain, > G3 (patients) (DL6 800 mg QD, N = 3) | TRAE Abdominal Pain, All grades (patients) (DL6 800 mg QD, N = 3) | TRAE Blood Lactic Acid increased, > G3 (patients) (DL6 800 mg QD, N = 3) | TRAE Constipation, > G3 (patients) (DL6 800 mg QD, N = 3) | TRAE Decreased appetite, > G3 (patients) (DL6 800 mg QD, N = 3) | TRAE Decreased appetite, All grades (patients) (DL6 800 mg QD, N = 3) | TRAE Diarrhoea, > G3 (patients) (DL6 800 mg QD, N = 3) | TRAE Fatigue, > G3 (patients) (DL6 800 mg QD, N = 3) | TRAE Fatigue, All grades (patients) (DL6 800 mg QD, N = 3) | TRAE Insomnia, > G3 (patients) (DL6 800 mg QD, N = 3) | TRAE Insomnia, All grades (patients) (DL6 800 mg QD, N = 3) | TRAE Nausea, > G3 (patients) (DL6 800 mg QD, N = 3) | TRAE Vomiting, > G3 (patients) (DL6 800 mg QD, N = 3) | TEAE Adrenal insufficiency grade 1 (DL6 800 mg orally daily (n=3)) | TEAE Adrenal insufficiency grade 2 (DL6 800 mg orally daily (n=3)) | TEAE Adrenal insufficiency grade 3 (DL6 800 mg orally daily (n=3)) | TEAE Adrenal insufficiency grade 4 (DL6 800 mg orally daily (n=3)) | TEAE Anaemia grade 1 (DL6 800 mg orally daily (n=3)) | TEAE Anaemia grade 2 (DL6 800 mg orally daily (n=3)) | TEAE Anaemia grade 3 (DL6 800 mg orally daily (n=3)) | TEAE Anaemia grade 4 (DL6 800 mg orally daily (n=3)) | TEAE Appendicitis perforated grade 1 (DL6 800 mg orally daily (n=3)) | TEAE Appendicitis perforated grade 2 (DL6 800 mg orally daily (n=3)) | TEAE Appendicitis perforated grade 3 (DL6 800 mg orally daily (n=3)) | TEAE Appendicitis perforated grade 4 (DL6 800 mg orally daily (n=3)) | TEAE Back pain grade 1 (DL6 800 mg orally daily (n=3)) | TEAE Back pain grade 2 (DL6 800 mg orally daily (n=3)) | TEAE Back pain grade 3 (DL6 800 mg orally daily (n=3)) | TEAE Back pain grade 4 (DL6 800 mg orally daily (n=3)) | TEAE Cystitis grade 1 (DL6 800 mg orally daily (n=3)) | TEAE Cystitis grade 2 (DL6 800 mg orally daily (n=3)) | TEAE Cystitis grade 3 (DL6 800 mg orally daily (n=3)) | TEAE Cystitis grade 4 (DL6 800 mg orally daily (n=3)) | TEAE Dry skin grade 1 (DL6 800 mg orally daily (n=3)) | TEAE Dry skin grade 2 (DL6 800 mg orally daily (n=3)) | TEAE Dry skin grade 3 (DL6 800 mg orally daily (n=3)) | TEAE Dry skin grade 4 (DL6 800 mg orally daily (n=3)) | TEAE Flank pain grade 1 (DL6 800 mg orally daily (n=3)) | TEAE Flank pain grade 2 (DL6 800 mg orally daily (n=3)) | TEAE Flank pain grade 3 (DL6 800 mg orally daily (n=3)) | TEAE Flank pain grade 4 (DL6 800 mg orally daily (n=3)) | TEAE Hypertension grade 1 (DL6 800 mg orally daily (n=3)) | TEAE Hypertension grade 2 (DL6 800 mg orally daily (n=3)) | TEAE Hypertension grade 3 (DL6 800 mg orally daily (n=3)) | TEAE Hypertension grade 4 (DL6 800 mg orally daily (n=3)) | TEAE Hypotension grade 1 (DL6 800 mg orally daily (n=3)) | TEAE Hypotension grade 2 (DL6 800 mg orally daily (n=3)) | TEAE Hypotension grade 3 (DL6 800 mg orally daily (n=3)) | TEAE Hypotension grade 4 (DL6 800 mg orally daily (n=3)) | TEAE Insomnia grade 2 (DL6 800 mg orally daily (n=3)) | TEAE Insomnia grade 3 (DL6 800 mg orally daily (n=3)) | TEAE Insomnia grade 4 (DL6 800 mg orally daily (n=3)) | TEAE Pain in extremity grade 1 (DL6 800 mg orally daily (n=3)) | TEAE Pain in extremity grade 2 (DL6 800 mg orally daily (n=3)) | TEAE Pain in extremity grade 3 (DL6 800 mg orally daily (n=3))
3: TEAE Diarrhoea, grade 1 (DL6 800 mg QD (n=3)) | TRAE Diarrhoea, All grades (patients) (DL6 800 mg QD, N = 3)
2: TEAE Constipation, grade 1 (DL6 800 mg QD (n=3)) | TEAE Nausea, grade 1 (DL6 800 mg QD (n=3)) | TRAE Nausea, All grades (patients) (DL6 800 mg QD, N = 3)
1: TEAE Hypotension grade 2 [1] | TEAE Abdominal discomfort, grade 1 (DL6 800 mg QD (n=3)) | TEAE Alanine aminotransferase increased, grade 1 (DL6 800 mg QD (n=3)) | TEAE Aspartate aminotransferase increased, grade 1 (DL6 800 mg QD (n=3)) | TEAE Blood lactic acid increased, grade 1 (DL6 800 mg QD (n=3)) | TEAE Decreased appetite, grade 1 (DL6 800 mg QD (n=3)) | TEAE Fatigue, grade 1 (DL6 800 mg QD (n=3)) | TEAE Gastrointestinal pain, grade 1 (DL6 800 mg QD (n=3)) | TEAE Toothache, grade 1 (DL6 800 mg QD (n=3)) | TEAE Vomiting, grade 1 (DL6 800 mg QD (n=3)) | TRAE Blood Lactic Acid increased, All grades (patients) (DL6 800 mg QD, N = 3) | TRAE Constipation, All grades (patients) (DL6 800 mg QD, N = 3) | TRAE Vomiting, All grades (patients) (DL6 800 mg QD, N = 3) | TEAE Insomnia grade 1 (DL6 800 mg orally daily (n=3))
